Laboratory results: ChEMBL document CHEMBL1136625, “Substituted quinolines induce inhibition of proliferation of HTLV-1 infected cells” (2003)

Organism: Homo sapiens
Test: Inhibitory activity against human T-lymphotropic virus type 1 (HTLV-1) infected HUT-102 cells at 50 uM
Type: functional
Conditions: not given

Compound | inhibition at 50 µM [%]
O=[N+]([O-])/C=C/c1ccc2ccccc2n1 | 0
C(=C\c1ccc2ccccc2n1)/c1ccc2ccccc2n1 | 0
CC(=O)Cc1ccc2ccccc2n1 | 0

Each compound was assayed on Human T-cell leukemia virus type I (assay: Inhibitory activity against human T-lymphotropic virus type 1 (HTLV-1) infected HUT-102 cells at 10 uM). Conditions: Primate T-lymphotropic virus 1, HuT-102.
Type: functional

Compound | inhibition at 10 µM [%]
COc1ccc(/C=C/c2ccc3ccccc3n2)cc1OC | 0
COc1ccc(C(O)Cc2ccc3ccccc3n2)cc1OC (centres undefined) | 0
C(=C\c1ccc2ccccc2n1)/c1ccccc1 | 0
COC(=O)/C=C/c1ccc2ccccc2n1 | 4
OC/C=C/c1ccc2ccccc2n1 | 0
COC(=O)/C=C/c1ccc2cc(C)ccc2n1 | 45
BrC(Br)=Cc1ccc2ccccc2n1 | 0
OC(c1ccc2ccccc2n1)C1CC1 (centres undefined) | 0
CCCCCc1ccc2ccccc2n1 | 0
CC1OC1c1ccc2ccccc2n1 (centres undefined) | 0
CC/C=C/c1ccc2ccccc2n1 | 0
C[Si](C)(C)C#Cc1ccc2ccccc2n1 | 87
CCCCCCCCCCCC/C=C/c1ccc2ccccc2n1 | 6
C=Cc1ccc2ccccc2n1 | 87
c1ccc(C2OC2c2ccc3ccccc3n2)cc1 (centres undefined) | 0
[O-][n+]1c(/C=C/c2ccccc2)ccc2ccccc21 | 86
c1ccc2nc(CCc3ccc4c(c3)OCO4)ccc2c1 | 50
OC(Cc1ccc2ccccc2n1)c1ccccc1 (centres undefined) | 16
CCCCCCCCCCCCCCc1ccc2ccccc2n1 | 12
CC(C)c1ccc2ccccc2n1 | 0
CC(O)Cc1ccc2cccc(O)c2n1 (centres undefined) | 85
CCCc1ccc2ccccc2n1 | 0
C(#Cc1cnc2ccccc2c1)CCC#Cc1cnc2ccccc2c1 | 82
CCC/C=C/c1ccc2ccccc2n1 | 46
O=C/C=C/c1ccc2ccccc2n1 | 34
c1ccc(-c2ccc3ccccc3n2)cc1 [2-PHENYLQUINOLINE] | 0
